Laboratory results: article PMC8877061, “Antifungal and Antibiofilm Activity of Cyclic Temporin L Peptide Analogues against Albicans and Non-Albicans Candida Species” (Pharmaceutics, 2022)
Positions of bridges follow the written chain, without caps; N, C: chain ends. Non-standard residues stand in square brackets, D forms with d. Residues, ends and D or L forms follow the SMILES beside them. Triazole bridges read from a SMILES are 1,4-linked. Lys(N3) = [N-]=[N+]=NCCCC[C@H](N)C(=O)O; Pra = C#CC[C@H](N)C(=O)O

Key:
G. mellonella larvae = conditions: in vivo
Description: Twenty larvae with an average weight of 180–200 mg were used in each group in all assays with 2 control groups; one group was inoculated with PBS, while the other group received no injection as a control to evaluate general viability. A volume of 10 µL of each peptide at different concentrations (12.5, 25.0, and 50.0 µM) was inoculated in each group. All larvae were incubated at 37 °C and monitored daily for survival for 4 days in 3 independent experiments.

[1] = system: G. mellonella larvae infected by different Candida species; assay: G. mellonella fungal infection model (Kaplan-Meier survival); assay type: in vivo; conditions: for in vivo effectiveness on infected G. mellonella larvae: 10^6 yeast cells with 12.5 μM peptide, 10 μL injected, 37 °C, different Candida species
Description: The G. mellonella fungal infection model was performed as described previously. We first determined the lethal concentrations of C. albicans, C. auris, C. glabrata, C. tropicalis and C. parapsilosis inocula by injecting concentrations of 10^4, 10^5 or 10^6 cells/larvae. The larvae were kept in Petri dishes at 37 °C, and survival was monitored for 3 d. A system of scoring already proposed by Loh et al. based on survival, mobility, degree of melanization, and the ability to produce a cocoon was used to evaluate the physical state of the larvae for 3 days. To evaluate the effects of the five peptides on Candida infection and compare mortality, 10 μL of 10^6 yeast cells in a medium containing 12.5 μM of each peptide’s concentrations was injected into the last left proleg of the larvae and incubated at 37 °C. The larvae were incubated at 37 °C and monitored daily for survival.

[2] = ANTS/DPX leakage, fungal membrane-like LUVs; conditions: for leakage activity against liposomes mimicking the fungal membrane: PE/PC/PI/ergosterol LUVs, concentration not given; for liposome leakage (ANTS release), fungal membrane-like LUVs: peptide 20 μM, PE/PC/PI/ergosterol LUVs 0.1 mM lipid, PBS pH 7.2, 10 min, fluorescence 385/512 nm
Description: (§1) ANTS/DPX-entrapped large unilamellar vesicles (LUVs) composed of PE/PC/PI/Ergosterol (5:4:1:2, w/w/w/w) and Chol/DOPC (70:30, ratio in moles) were prepared by the extrusion method as previously described in [28]. First, the lipid films were prepared by dissolving lipids in the proper ratio in chloroform to have a final concentration of 0.1 mM and then dried under a nitrogen gas stream. The probes of ANTS (12.5 mM) and DPX (45 mM) dissolved in water were added to the lipid films, and the mixture was freeze-dried overnight. The lipid films with encapsulated ANTS and DPX were hydrated with a PBS 1× buffer (pH = 7.2), vortexed for 1 h, freeze-thawed 6 times and extruded 10 times through 0.1-μm pore size polycarbonate filters to obtain the LUVs. The LUVs with entrapped ANTS and DPX were separated from the free ANTS and DPX by gel filtration chromatography on a Sephadex G-50 column (1.5 × 10 cm). The assay was based on the measurement of dequenching of ANTS by DPX when the LUVs were incubated with peptide concentrations of 5, 10, 15, 20, 30 and 50 μM. The increase in ANT fluorescence was recorded at an excitation fluorescence at 385 nm (slit width: 5 nm) and a fluorescence emission at 512 nm (slit width: 5 nm) for 10 min after the addition of the peptide. The destruction of all LUVs and the complete release of ANTs were obtained after treatment with 10% Triton-X. The percentage of liposome leakage was calculated as %leakage = (Fi − F0)/(Ft − F0), where F0 represents the fluorescence of the intact LUVs before the addition of the peptide and Fi and Ft are the intensities of the fluorescence achieved after peptide and Triton-X treatment, respectively.

[3] = system: S. typhimurium strain TA100; assay type: cell-based; conditions: 12.5 µM, TA100 without S9, 37 °C, 5 days, duplicate; MR ≥2 = mutagenic
Description: The fluctuation Ames test was performed according to the manufacturer’s protocol provided for the Muta-ChromoPlate Bacterial Strain Kit (EBPI, Canada) and according to OECD Guideline 471 (OECD Guidelines for the Testing of Chemicals, Section 4, Test No. 471: Bacterial Reverse Mutation Test). S. typhimurium strain TA100 was used to assess the bacterial reverse mutation from amino acid (histidine) auxotrophy to prototrophy after exposure to mutagens. The overnight TA100 cultures were exposed to each peptide at a 12.5-µM concentration in the presence of bromocresol purple and then dispensed into 96-well microtiter plates. The plates were incubated at 37 °C for 5 days. After this period, the number of positive colonies was counted and statistically compared with the number of positive colonies in the blank wells to identify the spontaneous mutation rate. The negative control was distilled water, while the positive control was sodium azide for TA100 without S9. All experiments were conducted in duplicate. The results were expressed as the mutagenicity ratio (MR) and were obtained by dividing the number of reverse mutation colonies by the spontaneous mutation rate. When the MR was ≥2, the sample was judged to be mutagenic.

C. albicans ATCC 90028 = assay type: cell-based; conditions: ATCC 90028, 24 h
Description: C. albicans ATCC 90028, C. auris DSM 21092, C. glabrata DSM 11226, C. tropicalis DSM11951 and C. parapsilosis DSM 4874 grown on YPD Agar (1% w/v yeast extract, 2% w/v peptone, 2% w/v glucose, 1.5% Agar) were cultured in Tryptone soya broth supplemented with 0.1% glucose for 16–18 h at 37 °C, washed twice using sterile phosphate-buffered saline (PBS) and standardized to […] as required for the experiments. RPMI1640 medium (Thermo Fisher Scientific, Waltham, MA, USA) buffered to a pH of 7.0 with 0.165 M MOPS was used for growing the biofilms of all Candida species.
The antifungal activity of peptides against all five Candida species was determined according to CLSI-M27-A3 [33], as reported previously. Briefly, the compounds were tested at concentrations ranging from […] to 50 μM, and the organism suspensions were adjusted to an inoculum of 10^6 cell/mL at OD 590 nm in RPMI 1640, added to the 96-well plate and incubated at 37 °C for 24 h. The minimum inhibitory concentration (MIC) values were determined as the lowest concentration inhibiting fungal growth at 590 nm using a microplate reader (Synergy™ H4; BioTek Instruments, Inc., Winooski, VT, USA). […] The MFC was the lowest concentration that yielded no colony growth on the agar. The MFC/MIC ratio was calculated to determine whether the substance had fungistatic (MFC/MIC ≥ 4) or fungicidal (MFC/MIC < 4) activity.

[4] = ANTS/DPX leakage, eukaryotic membrane-like LUVs; conditions: peptide 50 μM, Chol/DOPC LUVs 0.1 mM lipid, PBS pH 7.2, 10 min, fluorescence 385/512 nm
Description: as §1

Compound | toxicity in G. mellonella larvae at 50 μM (G. mellonella larvae) | in vivo effectiveness on infected G. mellonella larvae [1] | leakage activity against liposomes mimicking the fungal membrane [2] | liposome leakage (ANTS release), fungal membrane-like LUVs [2] | mutagenicity ratio (MR) [3] | MFC, C. albicans ATCC 90028 (C. albicans ATCC 90028) [µM] | survival rate of infected larvae ([1]; 12.5 μM, larvae infected by all strains, after 48 h) | liposome leakage (ANTS release), eukaryotic membrane-like LUVs [4]
CC[C@H](C)[C@H](NC(=O)[C@H](CCCNC(=N)N)NC(=O)[C@@H]1CCCCNC(=O)CC[C@H](NC(=O)[C@H](Cc2ccccc2)NC(=O)[C@H](Cc2c[nH]c3ccccc23)NC(=O)[C@@H]2CCCN2C(=O)[C@@H](NC(=O)[C@@H](N)Cc2ccccc2)C(C)C)C(=O)N[C@@H](CCCCN)C(=O)N[C@@H](Cc2ccccc2)C(=O)N[C@H](CC(C)C)C(=O)N1)C(=O)N[C@@H](CC(C)C)C(N)=O [compound 15] (H-FVPWFEKF[dL]KRIL-NH2; lactam 6-10; N-terminus assumed) | greater toxicity | in vivo effectiveness | less than 20% | lower ANTS release | < 2 | > 50 | – | –
CC[C@H](C)[C@H](NC(=O)[C@H](CCCNC(=N)N)NC(=O)[C@@H]1CCC(=O)NCCCC[C@H](NC(=O)[C@H](Cc2ccccc2)NC(=O)[C@H](Cc2c[nH]c3ccccc23)NC(=O)[C@@H]2CCCN2C(=O)[C@@H](NC(=O)[C@@H](N)Cc2ccccc2)C(C)C)C(=O)N[C@@H](CCCCN)C(=O)N[C@@H](Cc2ccccc2)C(=O)N[C@H](CC(C)C)C(=O)N1)C(=O)N[C@@H](CC(C)C)C(N)=O [compound 3] (H-FVPWFKKF[dL]ERIL-NH2; lactam 6-10; N-terminus assumed) | – | in vivo effectiveness | ~30% | ~ 30% | < 2 | – | increased the survival rate | ~ 28%
CC[C@H](C)[C@H](NC(=O)[C@H](CCCNC(=N)N)NC(=O)[C@@H]1CSSC[C@H](NC(=O)[C@H](Cc2ccccc2)NC(=O)[C@H](Cc2c[nH]c3ccccc23)NC(=O)[C@@H]2CCCN2C(=O)[C@@H](NC(=O)[C@@H](N)Cc2ccccc2)C(C)C)C(=O)N[C@@H](CCCCN)C(=O)N[C@@H](Cc2ccccc2)C(=O)N[C@H](CC(C)C)C(=O)N1)C(=O)N[C@@H](CC(C)C)C(N)=O [compound 16] (H-FVPWFCKF[dL]CRIL-NH2; disulfide 6-10; N-terminus assumed) | – | in vivo effectiveness | – | lower ANTS release | < 2 | >50 | – | ~ 28%
CC(C)C[C@H](NC(=O)[C@@H]1CCCCn2cc(nn2)C[C@H](NC(=O)[C@H](CCCCN)NC(=O)[C@H](CO)NC(=O)[C@H](Cc2ccccc2)NC(=O)[C@H](Cc2c[nH]c3ccccc23)NC(=O)[C@@H]2CCCN2C(=O)[C@@H](NC(=O)[C@@H](N)Cc2ccccc2)C(C)C)C(=O)N[C@H](CC(C)C)C(=O)NCC(=O)N[C@@H](CCCNC(=N)N)C(=O)N1)C(N)=O [compound 7] (H-FVPWFSK[Pra][dL]GR[Lys(N3)]L-NH2; triazole 8-12; N-terminus assumed) | – | in vivo effectiveness | – | lower ANTS release | < 2 | – | – | ~ 28%
